From patent US8278033B2, “Efficient well being assessment and improved treatment protocol” (priority 2008, dated 2012)
Values joined by “and” are separate entries in the source; they are usually repeats but may differ in a detail not shown here. Identical values can stand only once.

Experiments:
[1] = test system: endothelial cells; assay: Anti-microvascular effect scoring, Fast Green/H&E stained pancreatic carcinoid tumor suspension culture; format: cell-based, human
Procedure: (§1) Solid tumors are minced to pieces smaller than 1 mm (small enough to be aspirated into a standard disposable 10 ml pipette) with high quality curved surgical scissors. Medium in which said tumors may have been transported is reserved, along with the supernatant from the tissue mince. Scissor-minced tumor pieces are digested with collagenase/DNase in RPMI-1640 containing antibiotics and 10% fetal calf serum. Specimens are digested in 50 ml disposable polypropylene centrifuge tubes, assisted by gentle mixing with plastic-coated, magnetic stirring bars over a stirring plate. Specimens are thusly mixed until complete gross digestion has taken place—typically about 2-3 hours for a 1-3 gram specimen. Cytospin slides are then prepared from all cell fractions (transport medium, supernatant from tissue mince, and enzyme digestate), and stained with fast green-H&E, as described previously (Weisenthal, et al., “A Novel Dye Exclusion Method for Testing in vitro Chemosensitivity of Human Tumors,” Cancer Res. (1983) 43:749-757).
Final volume of cell suspension/drug solution (or vehicle) plated for culture can be 0.12 ml. […]
Cells are cultured with the index concentration of each drug and, if desired, with dilutions of the index concentration, where the index concentration is determined from training set assays or from the literature. […]

[2] = test system: endothelial cells; assay: Anti-vascular score (AVS) on Fast Green/H&E slides of tumor cell cultures, averaged over paired comparisons; format: cell-based, human; set-up: key to Anti-Vascular Score (AVS) (Avg): 10x the 0+ to 5+ anti-microvascular score (max 50); key to AVS minus VAVS (Avg): AVS minus vehicle AVS, on 10x the 0+ to 5+ scale; conditions: for Anti-Vascular Score (AVS) (Avg): 10x multiples of the 0+ to 5+ score, average of N paired comparisons, bevacizumab 2.5 mg/ml, DMSO 0.5% + EtOH 0.5%, cisplatin 3.3, sunitinib 8.35, gefitinib 22.35, erlotinib 89.4, sorafenib 12.5, imatinib 12.5 μg/ml; for AVS minus VAVS (Avg): AVS corrected for the effect of vehicle by subtraction; for AVS minus VAVS (Avg) / (AVS − VAVS)/AT Ratio (Avg): concentrations as in Table 1; for (AVS − VAVS)/AT Ratio (Avg): ratio of vehicle-corrected AVS to antitumor score
Procedure: as §1
Final volume of cell suspension/drug solution (or vehicle) plated for culture can be 0.12 ml. Culturing is in polypropylene round bottom, 96-well culture dishes in a humidified 37° C. incubator for a standardized duration of time.
Cells are cultured with the index concentration of each drug and, if desired, with dilutions of the index concentration, where the index concentration is determined from training set assays or from the literature. […] Replicate 96-well plates are tested.
The various drugs were rated by scoring on a 0+ to 5+ scale for the anti-microvascular effects, with 5+ being the highest possible score. […] The “nib” drugs are kinase inhibiting drugs.
(§2) For this determination, the results provided in Table 1 are 10× multiples of the scoring system of the previous paragraph.
(§3) The scores provided in FIG. 2 were multiplied by 10 and averaged to give an anti-vascular score (AVS) shown in column 2; the average AVS for the vehicle alone (VAVS) is shown in column 3 and the level of the statistical significance of their difference is shown in column 4. The AVS score was corrected for the effect of vehicle by subtraction as shown in column 5. The antitumor score (AT) is shown in column 6.
Finally, the ratio of AVS (corrected for the effect of vehicle) to the antitumor score is shown in the last column.

[3] = test system: tumor cells; assay: Direct antitumor (AT) score on slides of tumor cell cultures; format: cell-based, human; conditions: direct antitumor effects; concentrations as in Table 1
Procedure: as §1
To assay for endothelial cells are mixed with, for example, 10% (volume/volume) or, for example, 1% (volume/volume) or intermediate percentages of antiangiogenic drug containing solution or vehicle control (most typically 0.9% NaCl). Final volume of cell suspension/drug solution (or vehicle) plated for culture can be 0.12 ml. Culturing is in polypropylene round bottom, 96-well culture dishes in a humidified 37° C. incubator for a standardized duration of time.
Cells are cultured with the index concentration of each drug and, if desired, with dilutions of the index concentration, where the index concentration is determined from training set assays or from the literature. Negative controls generally consist of 0.9% NaCl, and/or the vehicle in which an antiangiogenic drug is dissolved. Replicate 96-well plates are tested.
as §2, §3

[4] = test system: endothelial cells; assay: Anti-microvascular effects in non-Hodgkin's Lymphoma lymph node biopsy culture (ImageJ and manual scores); format: cell-based, human; conditions: for concentration at which anti-angiogenic cell effects were achievable / anti-microvascular activity (in words): NHL lymph node biopsy sample; for concentration at which anti-angiogenic cell effects were achievable: FIG. 7; for anti-microvascular activity (in words): FIG. 6
Text: (§4) A lymph node biopsy was obtained from a non-Hodgkin's Lymphoma patient and processed and stained as described above. […] The cells can also be imaged using publicly available “ImageJ” software available from the National Institutes of Health (NIH) to assist quantitation. The image is converted to 8-bit black and white threshold gated to paint only the dead endothelial cells.
The raw scores for the gated features (putative dead endothelial cells) are normalized for uneven cell distributions by image analyzing each area twice: first with the detection threshold set to gate only the features of interest (putative dead endothelial cells) and then again to detect all features on the slide (this would be analogous to normalizing gene copy to total DNA in cell extracts).

[5] = test system: non-Hodgkin's Lymphoma (NHL) cells; assay: Direct antitumor cell effects in non-Hodgkin's Lymphoma lymph node biopsy culture; format: cell-based, human; conditions: NHL lymph node biopsy sample, FIG. 6
Text: as §4
(§5) The objective, automated ImageJ scores for both individual gated features and also for total area (originally in pixels squared) is shown. The raw scores for the gated features (putative dead endothelial cells) are normalized for uneven cell distributions by image analyzing each area twice: first with the detection threshold set to gate only the features of interest (putative dead endothelial cells) and then again to detect all features on the slide (this would be analogous to normalizing gene copy to total DNA in cell extracts). Shown additionally are the subjective (0+ to 5+) manual anti-vascular scores which were obtained one month before the installed the ImageJ software was installed. Shown additionally are the direct antitumor cell effects of each of the drugs and solvents tested.

[6] = test system: endothelial cells; assay: Endothelial cell killing by drugs and combinations in a poorly differentiated breast cancer specimen; format: cell-based, human; conditions: for effectiveness in endothelial cell killing (in words): Fast Green/H&E
Text: A specimen of poorly differentiated breast cancer was used in the procedures set forth in the previous examples and tested with various drugs and drug combinations as described above.

[7] = test system: endothelial cells; conditions: microaggregates of tumor biopsies, WO 2007/075440; cited from earlier work
[8] = test system: tumor cells; conditions: microaggregates of tumor biopsies, WO 2007/075440; cited from earlier work
[9] = test system: endothelial cells; assay: ImageJ quantitation of dead endothelial cells in cultured lymph samples; format: cell-based, human; conditions: all of the lymphoma patients
Text: as §4, §5
Lymph samples from five lymphoma patients and two normal volunteers were cultured and stained as described above. […] The quantitation of results was as described in Example 4 using ImageJ software.

[10] = test system: vascular endothelial growth factor (VEGF); assay: Level of VEGF in tumor cell cultures (optical density 450 nm minus 570 nm); format: cell-based, human
Procedure: The observed ability of EtOH/DMSO to effect killing of microvascular/endothelial cells may be due to the ability of these solvents to reduce the levels of VEGF in cell culture. It is known that tumor cells secrete VEGF and VEGF is needed, for the growth of neovasculature. Accordingly, a number of tumor cell cultures were treated with these solvents. The level of VEGF in the cultures was measured by subtracting the optical density at 570 nm from the optical density of 450 nm.
For tumor samples preserved in 10% DMSO, only very low levels of VEGF were observed. […] Of particular interest are the cells from Patient 6, shown at the end of the table.

[11] = test system: endothelial cells; assay: Endothelial cell death in cultured peripheral blood chronic lymphocytic leukemia cells; format: cell-based, human; conditions: peripheral blood CLL cells cultured 4 days, 2.5 mg/ml
Text: They are readily apparent as refractile, angular small cells of smaller dimension than the surrounding cells. These cells are about one-third the size of lymphocytes and are about 3μ in diameter.

| Compound | Anti-Vascular Score (AVS) (Avg) [2] | AVS minus VAVS (Avg) [2] | (AVS − VAVS)/AT Ratio (Avg) [2] | Anti-Tumor (AT) Score (Avg) [3] | anti-microvascular activity (in words) [4] | direct antitumor activity (in words) [5] | also measured |
| --- | --- | --- | --- | --- | --- | --- | --- |
| COc1cc2ncnc(Nc3ccc(F)c(Cl)c3)c2cc1OCCCN1CCOCC1 [Gefitinib, gefitinib] | 8.3 | 4.5 | 0.16 | 28.5 | – | – | anti-microvascular effects score (0+ to 5+ scale) ([1]; pancreatic carcinoid tumor suspension culture, bevacizumab at 2.5 mg/ml, Fast Green/H&E): 0 |
| CCO [ethanol] | – | – | – | – | – | – | concentration at which anti-angiogenic cell effects were achievable [4]: 0.125 % of the final medium |
| N.N.[Cl][Pt][Cl] [Cisplatin] | 4.5 | 0.6 | 0.01 | 59.2 | – | – | – |
| CNC(=O)c1cc(Oc2ccc(NC(=O)Nc3ccc(Cl)c(C(F)(F)F)c3)cc2)ccn1 [Sorafenib, sorafenib] | – | 1.4 | – | 28.7 | comparable to those of vehicle alone | acted directly on tumor cells | – |
| C[S+](C)[O-] [DMSO] | – | – | – | – | – | – | concentration at which anti-angiogenic cell effects were achievable [4]: 0.125 % of the final medium |
| CCN(CC)CCNC(=O)c1c(C)[nH]c(/C=C2\C(=O)Nc3ccc(F)cc32)c1C [Sunitinib, sunitinib] | 9.5 | 4.9 | 0.19 | 25.8 | – | – | – |
| COc1cccc2c1C(=O)c1c(O)c3c(c(O)c1C2=O)C[C@@](O)(C(=O)CO)C[C@@H]3O[C@H]1C[C@H](N)[C@H](O)[C@H](C)O1 [doxorubicin] | – | – | – | – | relatively ineffective as anti-microvascular agents | direct antitumor effects | – |
| C#Cc1cccc(Nc2ncnc3cc(OCCOC)c(OCCOC)cc23)c1 [Erlotinib, erlotinib] | 16.2 | 4.2 | 0.19 | 22.5 | comparable to those of vehicle alone | to a lesser extent, erlotinib acted directly on tumor cells | effectiveness in endothelial cell killing (in words) [6]: None appeared particularly effective |
| Cc1ccc(NC(=O)c2ccc(CN3CCN(C)CC3)cc2)cc1Nc1nccc(-c2cccnc2)n1 [Imatinib, imatinib] | – | 2.8 | – | 23.6 | comparable to those of vehicle alone | acted directly on tumor cells | effectiveness in endothelial cell killing (in words) [6]: None appeared particularly effective |
| bevacizumab | 24.7 | 19.7 | – | 12.9 | – | essentially no direct antitumor effects | endothelial cell death (appearance after Fast Green/H&E) ([1]; pancreatic carcinoid tumor, 96 hours in suspension culture, 2.5 mg/ml): resulting in endothelial cell death; effect on endothelial cells (in words) [7]: endothelial cells showing up dead; effect on tumor cells (in words) [8]: tumor cells remain unaffected; visibility of endothelial cells (in words) [9]: greatly enhanced; dead endothelial cells (200x view) ([4]; NHL lymph node biopsy cells cultured 4 days): presence of dead endothelial cells is readily apparent; 450-570 O.D. (level of VEGF) ([10]; Pt 1 cells (Merkel tumor, 10% DMSO cryopreserved), 1.25 mg/ml, wells #1-#3, listed as Bev): 0.054 and 0.059; 450-570 O.D. (level of VEGF) ([10]; Pt 1 cells (Merkel tumor, 10% DMSO cryopreserved), 2.5 mg/ml, wells #1-#3, listed as Bev): 0.051 and 0.052 and 0.054; 450-570 O.D. (level of VEGF) ([10]; Pt 2 cells (ovarian, 10% DMSO cryopreserved), 1.25 mg/ml, wells #1-#3, listed as Bev): 0.059 and 0.055 and 0.054; 450-570 O.D. (level of VEGF) ([10]; Pt 2 cells (ovarian, 10% DMSO cryopreserved), 2.5 mg/ml, wells #1-#3, listed as Bev): 0.052 and 0.056 and 0.054; 450-570 O.D. (level of VEGF) ([10]; Pt 3 cells (breast, fresh), 2.5 mg/ml, wells #1-#2, listed as Bev): 0.056 and 0.059; 450-570 O.D. (level of VEGF) ([10]; Pt 4 cells (NHL, fresh), 1.25 mg/ml, wells #1-#2, listed as Bev): 0.074 and 0.068; 450-570 O.D. (level of VEGF) ([10]; Pt 4 cells (NHL, fresh), 2.5 mg/ml, wells #1-#2): 0.055; 450-570 O.D. (level of VEGF) ([10]; Pt 5 cells (breast, fresh), 2.5 mg/ml, well #1): 0.053; 450-570 O.D. (level of VEGF) ([10]; Pt 6 cells (breast, fresh), 1.25 mg/ml, well #1): 0.063; 450-570 O.D. (level of VEGF) ([10]; Pt 6 cells (breast, fresh), 2.5 mg/ml, well #1): 0.052; levels of VEGF (in words) ([10]; fresh breast tumor cells, untreated levels off-scale): could be brought to 0; endothelial cell death [11]: caused endothelial cell death; anti-microvascular score ([6]; drug alone): +1 |
